Target: T1, PH domain of GRP (Mus musculus, UniProt O08967)
T1 sequence (O08967 239-399): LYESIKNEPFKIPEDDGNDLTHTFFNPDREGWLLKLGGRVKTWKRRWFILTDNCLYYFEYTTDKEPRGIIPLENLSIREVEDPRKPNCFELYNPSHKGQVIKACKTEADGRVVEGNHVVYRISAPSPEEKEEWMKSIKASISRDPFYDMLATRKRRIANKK
Test: Competition for [3H]dioctanoyl PtdIns(3,4,5)P3 binding to the PH domain of GRP
Set-up: GST fused to the PH region of GRP (amino acids 239-399); made in house; host or cells: bacteria
Conditions: competition for [^3 H]dioctanoyl PtdIns(3,4,5)P3
Description: Binding assays were performed as described in (Rameh, L. E. et al., J. Biol. Chem., In Press). Briefly, GST fused to the PH region of GRP (amino acids 239-399) was bound to glutathione immobilized on agarose beads (Sigma). Synthetic [^3 H]-labeled diotanoyl PtdIns(3,4,5)P3 was added, and after one hour the beads were separated from the supernatant by centrifugation. The amount of [^3 H]-PtdIns(3,4,5)P3 bound to the PH domain was calculated by subtracting the amount of free [^3 H] present in supernatants from GST-GRP from the amount of free [^3 H] in supernatants from control GST. The data was fitted to the equation [bound]=Bmax×[free]/(KD + [free]) by least squares curve fit. For the competition assays the beads containing the GST-fusion proteins were incubated with 2.5 μM[^3 H]-labeled dioctanoyl PtdIns(3,4,5)P3 bound was calculated based on the amount of [^3 H] bound to the beads in the absence of competitor. The total [^3 H] bound to the GST control was less then 0.5% of the total [^3 H] bound to GRP PH domain. The data was fitted to the equation % bound=100-n×L/Klapp +L) where n is the % specific binding, L is the concentration of unlabeled lipid added and Klapp is the apparent competitive dissociation constant. The rations of the apparent dissociation constants accurately reflect the ratios of the true dissociation constants under the present experimental conditions (Rameh, L. E. et al., J. Biol. Chem., In Press).
The data depicted in FIG. 8 indicate that receptor signaling through PI3-kinases, which generates PtdIns(3,4,5)P3, may specifically regulate ARF proteins through GRP. In order to further test this, the relative binding affinities of PtdIns(3,4,5)P3 versus PtdIns (4,5)P2, which is constitutively present in cell membranes, for the PH domain of GRP were determined. A GST fusion protein of the PH domain of GRP was incubated with various concentrations of synthetic [^3 H]dioctanoyl PtdIns(3,4,5)P3 and binding was determined (FIG. 9A). These experiments show high affinity binding of this polyphosphoinositide,with a calculated Kd=0.5 μM.

- KI(app), fold lower than for PtdIns(4,5)P2: 10-20 fold
Substance: Phosphatidylinositol (3,4,5)-Trisphosphate [PtdIns(3,4,5)P3]
